# Data published in the supplement of paper PMC10307832.
# Legend:
# Test in all cases: relative viability (nuclei count vs DMSO), 5 days (fraction); higher = more cells survive
# NCI-H661 = test system: NCI-H661
# Method in brief: (§1)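 Values are medians from duplicate plates. Each reflects relative viability, defined as the nuclei count of treated wells over that of vehicle wells. Lung cancer cell lines in 1536-well plates were pin-tool dosed one day after seeding with one drug alone or with a fixed anchor-drug dose plus five library-drug doses (not always all listed) in √10 steps, then fixed, stained and imaged at 4× after 5 days.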
# CAL-12T = test system: CAL-12T
# Method in brief: as §1
# NCI-H1395 = test system: NCI-H1395
# Method in brief: as §1
# NCI-H1993 = test system: NCI-H1993
# Method in brief: as §1
# NCI-H23 = test system: NCI-H23
# Method in brief: as §1
# NCI-H1355 = test system: NCI-H1355
# Method in brief: as §1
# NCI-H2170 = test system: NCI-H2170
# Method in brief: as §1
# LCLC-103H = test system: LCLC-103H
# Method in brief: as §1
# NCI-H1651 = test system: NCI-H1651
# Method in brief: as §1
# NCI-H1666 = test system: NCI-H1666
# Method in brief: as §1
# COR-L23 = test system: COR-L23
# Method in brief: as §1
# NCI-H2347 = test system: NCI-H2347
# Method in brief: as §1
# 201T = test system: 201T
# Method in brief: as §1
# LC-2-ad = test system: LC-2-ad
# Method in brief: as §1
# NCI-H2085 = test system: NCI-H2085
# Method in brief: as §1
# NCI-H520 = test system: NCI-H520
# Method in brief: as §1
# NCI-H2228 = test system: NCI-H2228
# Method in brief: as §1
# NCI-H647 = test system: NCI-H647
# Method in brief: as §1
# HOP-62 = test system: HOP-62
# Method in brief: as §1
# HCC-44 = test system: HCC-44
# Method in brief: as §1
# NCI-H838 = test system: NCI-H838
# Method in brief: as §1
# ABC-1 = test system: ABC-1
# Method in brief: as §1
# NCI-H322M = test system: NCI-H322M
# Method in brief: as §1
compound,measurement,setting,value
Cc1cnc(-c2cnc(NCCNc3ccc(C#N)cn3)nc2-c2ccc(Cl)cc2Cl)[nH]1 + CCNC(=O)c1noc(-c2cc(C(C)C)c(O)cc2O)c1-c1ccc(CN2CCOCC2)cc1 [Luminespib] (partner 0.01 µM),relative viability,NCI-H661; first compound 0.08 µM,0.889
same,relative viability,NCI-H661; first compound 0.253 µM,0.881
same,relative viability,NCI-H661; first compound 0.8 µM,0.904
same,relative viability,NCI-H661; first compound 2.53 µM,0.829
same,relative viability,CAL-12T; first compound 0.08 µM,0.932
same,relative viability,CAL-12T; first compound 0.253 µM,0.259
same,relative viability,CAL-12T; first compound 0.8 µM,0.387
same,relative viability,CAL-12T; first compound 2.53 µM,0.242
same,relative viability,NCI-H1395; first compound 0.08 µM,0.627
same,relative viability,NCI-H1395; first compound 0.253 µM,0.708
same,relative viability,NCI-H1395; first compound 0.8 µM,0.65
same,relative viability,NCI-H1395; first compound 2.53 µM,0.677
same,relative viability,NCI-H1993; first compound 0.08 µM,0.934
same,relative viability,NCI-H1993; first compound 0.253 µM,0.932
same,relative viability,NCI-H1993; first compound 0.8 µM,0.598
same,relative viability,NCI-H1993; first compound 2.53 µM,1.27
same,relative viability,NCI-H23; first compound 0.08 µM,0.22
same,relative viability,NCI-H23; first compound 0.253 µM,0.218
same,relative viability,NCI-H23; first compound 0.8 µM,0.216
same,relative viability,NCI-H23; first compound 2.53 µM,0.209
same,relative viability,NCI-H1355; first compound 0.08 µM,0.704
same,relative viability,NCI-H1355; first compound 0.253 µM,0.698
same,relative viability,NCI-H1355; first compound 0.8 µM,0.677
same,relative viability,NCI-H1355; first compound 2.53 µM,0.744
same,relative viability,NCI-H2170; first compound 0.08 µM,0.984
same,relative viability,NCI-H2170; first compound 0.253 µM,0.593
same,relative viability,NCI-H2170; first compound 0.8 µM,0.667
same,relative viability,NCI-H2170; first compound 2.53 µM,0.655
same,relative viability,LCLC-103H; first compound 0.08 µM,1.08
same,relative viability,LCLC-103H; first compound 0.253 µM,0.865
same,relative viability,LCLC-103H; first compound 0.8 µM,0.933
same,relative viability,LCLC-103H; first compound 2.53 µM,0.826
same,relative viability,NCI-H1651; first compound 0.08 µM,1.03
same,relative viability,NCI-H1651; first compound 0.253 µM,0.864
same,relative viability,NCI-H1651; first compound 0.8 µM,0.762
same,relative viability,NCI-H1651; first compound 2.53 µM,0.883
same,relative viability,NCI-H1666; first compound 0.08 µM,1.04
same,relative viability,NCI-H1666; first compound 0.253 µM,1.04
same,relative viability,NCI-H1666; first compound 0.8 µM,1.04
same,relative viability,NCI-H1666; first compound 2.53 µM,1.08
same,relative viability,COR-L23; first compound 0.08 µM,0.784
same,relative viability,COR-L23; first compound 0.253 µM,0.578
same,relative viability,COR-L23; first compound 0.8 µM,0.659
same,relative viability,COR-L23; first compound 2.53 µM,0.621
same,relative viability,NCI-H2347; first compound 0.08 µM,0.267
same,relative viability,NCI-H2347; first compound 0.253 µM,0.266
same,relative viability,NCI-H2347; first compound 0.8 µM,0.346
same,relative viability,NCI-H2347; first compound 2.53 µM,0.518
same,relative viability,201T; first compound 0.08 µM,1.11
same,relative viability,201T; first compound 0.8 µM,1.06
same,relative viability,201T; first compound 2.53 µM,1.01
same,relative viability,LC-2-ad; first compound 0.08 µM,0.956
same,relative viability,LC-2-ad; first compound 0.253 µM,0.683
same,relative viability,LC-2-ad; first compound 2.53 µM,0.963
same,relative viability,NCI-H2085; first compound 0.08 µM,0.456
same,relative viability,NCI-H2085; first compound 0.253 µM,0.486
same,relative viability,NCI-H2085; first compound 0.8 µM,0.462
same,relative viability,NCI-H2085; first compound 2.53 µM,0.339
same,relative viability,NCI-H520; first compound 0.08 µM,0.257
same,relative viability,NCI-H520; first compound 0.253 µM,0.203
same,relative viability,NCI-H520; first compound 0.8 µM,0.227
same,relative viability,NCI-H520; first compound 2.53 µM,0.208
same,relative viability,NCI-H2228; first compound 0.08 µM,0.131
same,relative viability,NCI-H2228; first compound 0.253 µM,0.156
same,relative viability,NCI-H2228; first compound 0.8 µM,0.133
same,relative viability,NCI-H2228; first compound 2.53 µM,0.159
same,relative viability,NCI-H647; first compound 0.08 µM,0.144
same,relative viability,NCI-H647; first compound 0.253 µM,0.131
same,relative viability,NCI-H647; first compound 0.8 µM,0.135
same,relative viability,NCI-H647; first compound 2.53 µM,0.166
same,relative viability,HOP-62; first compound 0.08 µM,0.955
same,relative viability,HOP-62; first compound 0.253 µM,0.841
same,relative viability,HOP-62; first compound 0.8 µM,0.79
same,relative viability,HOP-62; first compound 2.53 µM,0.738
same,relative viability,HCC-44; first compound 0.08 µM,1.21
same,relative viability,HCC-44; first compound 0.253 µM,0.968
same,relative viability,HCC-44; first compound 0.8 µM,1.14
same,relative viability,HCC-44; first compound 2.53 µM,1.24
same,relative viability,NCI-H838; first compound 0.08 µM,0.326
same,relative viability,NCI-H838; first compound 0.253 µM,0.287
same,relative viability,NCI-H838; first compound 0.8 µM,0.333
same,relative viability,NCI-H838; first compound 2.53 µM,0.301
same,relative viability,ABC-1; first compound 0.08 µM,0.591
same,relative viability,ABC-1; first compound 2.53 µM,0.82
same,relative viability,NCI-H322M; first compound 0.08 µM,0.969
same,relative viability,NCI-H322M; first compound 0.253 µM,0.808
same,relative viability,NCI-H322M; first compound 0.8 µM,0.857
same,relative viability,NCI-H322M; first compound 2.53 µM,1.03
